“Also recorded” adds a separate entry of the source.
Tests used:
Format in all cases: in vivo
[1] = test system: antibody-forming cells (AFC) in the spleen; experiment: Influence of compound on humoral immune response to sheep erythrocytes, C57B1/6 female mice (AFC in spleen, hemagglutinins); settings: for Amount of antibody-forming cells per 10^6 spleen cells / Amount of antibody-forming cells per spleen / Effect on relative amount of AFC (per 10^6 spleen cells) / Effect on total AFC amount (per spleen) / Effect on hemagglutinin titers / Spleen index / Amount of hemagglutinins: i.v.; for Amount of antibody-forming cells per 10^6 spleen cells / Amount of antibody-forming cells per spleen / Effect on relative amount of AFC (per 10^6 spleen cells) / Effect on total AFC amount (per spleen): 5th day; for Amount of antibody-forming cells per 10^6 spleen cells / Amount of antibody-forming cells per spleen: M ± SEM; for Effect on relative amount of AFC (per 10^6 spleen cells) / Effect on total AFC amount (per spleen) / Effect on hemagglutinin titers: vs control; for Spleen index: with SRBC i.p.; for Amount of hemagglutinins: serum
[2] = test system: antibody-forming cells (AFC) in the spleen; experiment: Influence of human AFP/compound complex and compound alone on humoral immune response, C57B1/6 male mice; settings: compound alone; for relative amount of AFC / total AFC amount: 5th day
Description: (§1) The influence of complexes of AFP with one of the title compounds 1-4, 1a-4a, 5-20 as well as their basic components on humoral immune response was estimated by counting the quantity of antibody-forming cells (AFC) in the mice spleen.
0.15 ml of AFP/Compound 3 complex was administered intravenously to 6 mice males of C57B1/6 line (weight 18-22 g) in the dose of […] of AFP and 45.5 μg of compound 3 per capita. Simultaneously suspension of 5·10^7 sheep erythrocytes was injected intraperitoneally (0.2 ml per capita). In the group with compound 3 mice were injected intravenously by one in the dose of 45.5 μg. Animals of group with AFP received 9 μg of AFP. Mice of control group were injected intravenously with equal volume of saline. Complex AFP/Compound 3 effect on humoral immune response was analyzed by counting the quantity of AFC in the spleen according to Cunningham (per 10^6 spleen cells and per spleen).
(§2) 0.15 ml of AFP/Compound 2a complex (1:100) was administered intravenously to 6 mice males of C57B1/6 line (weight 18-22 g) in the dose of 9 μg of AFP and 45.5 μg of compound 2a per capita. Simultaneously, a suspension of 5·10^7 sheep erythrocytes was injected intraperitoneally (0.2 ml per capita). In the group with compound 2a mice were injected intravenously by one in the dose of 45.5 μg. Animals of group with AFP received 9 μg of AFP. Mice in the control group were injected intravenously with an equal volume of saline. The effect of the AFP/Compound 2a complex on humoral immune response was analyzed by counting the quantity of AFC in the spleen according to Cunningham (per 10^6 spleen cells and per spleen).
(§3) 0.15 ml of AFP/Compound 10 complex (1:200) was administered intravenously to 6 male mice of C57B1/6 line (weight 18-22 g) in the dose of 9 μg of AFP and 91 μg of compound 10 per capita. Simultaneously, a suspension of 5·10^7 sheep erythrocytes was injected intraperitoneally (0.2 ml per capita). In the group receiving compound 10 mice were injected intravenously by one in the dose of 91 μg. Animals in the group with AFP received 9 μg of AFP. Micein the control group were injected intravenously with an equal volume of saline. The effect of the AFP/Compound 10 complex on humoral immune response was analyzed by counting the quantity of AFC in the spleen according to Cunningham (per 10^6 spleen cells and per spleen).
as §3, with “AFP/Compound 14” for “AFP/Compound 10”, “compound 14” for “compound 10”, “group with” for “group receiving”, “Animals of” for “Animals in the”, “AFP. Mice in” for “AFP. Micein”

[3] = test system: antibody-forming cells (AFC) in the spleen; experiment: Influence of rat AFP/compound complex and compound alone on humoral immune response, C57B1/6 male mice; settings: compound alone, 5th day
Description: as §1
0.15 ml of AFP/Compound 7 complex (1:200) was administered intravenously to 6 male mice of C57B1/6 line (weight 18-22 g) in the dose of 9 μg of AFP and 91 μg of compound 7 per capita. Simultaneously, a suspension of 5·10^7 sheep erythrocytes was injected intraperitoneally (0.2 ml per capita). In the group with compound 7 mice were injected intravenously by one in the dose of 91 μg. Animals of group with AFP received 9 μg of AFP. Mice of control group were injected intravenously with equal volume of saline. AFP/Compound 7 complex effect on humoral immune response was analyzed by counting the quantity of AFC in the spleen according to Cunningham (per 10^6 spleen cells and per spleen).
0.15 ml of AFP/Compound 15 complex (1:200) was administered intravenously to 6 mice males of C57B1/6 line (weight 18-22 g) in the dose of 9 μg of AFP and 91 μg of compound 15 per capita. Simultaneously, a suspension of 5·10^7 sheep erythrocytes was injected intraperitoneally (0.2 ml per capita). In the group receiving compound 15, the mice were injected intravenously by one in the dose of 91 μg. Animals in the AFP-group received 9 μg of AFP. Mice in the control group were injected intravenously with an equal volume of saline. The effect of the AFP/Compound 15 complex on humoral immune response was analyzed by counting the quantity of AFC in the spleen according to Cunningham (per 10^6 spleen cells and per spleen).
as §2, with “1” for “2a”, “complex” for “complex (1:100)”, “Complex AFP/Compound 1” for “The”, “effect” for “effect of the AFP/Compound 2a complex”

| Structure (SMILES) | Immunogenic activity ([1]; 45.5 μg/mouse) | Amount of antibody-forming cells per 10^6 spleen cells ([1]; 45.5 μg/mouse) | Amount of antibody-forming cells per spleen ([1]; 45.5 μg/mouse) | Effect on relative amount of AFC (per 10^6 spleen cells) ([1]; 45.5 μg/mouse) | Effect on total AFC amount (per spleen) ([1]; 45.5 μg/mouse) | Effect on hemagglutinin titers ([1]; 45.5 μg/mouse) | Spleen index ([1]; 45.5 μg/mouse) | immunostimulating effect in vivo in micelle form ([1]; 91 μg/mouse) | Amount of antibody-forming cells per 10^6 spleen cells ([1]; 91 μg/mouse) | Amount of antibody-forming cells per spleen ([1]; 91 μg/mouse) | Effect on hemagglutinin titers ([1]; 91 μg/mouse) | Spleen index ([1]; 91 μg/mouse) | Amount of antibody-forming cells per 10^6 spleen cells ([1]; 136.5 μg/mouse) | Amount of antibody-forming cells per spleen ([1]; 136.5 μg/mouse) | Effect on hemagglutinin titers ([1]; 136.5 μg/mouse) | Spleen index ([1]; 136.5 μg/mouse) | immunostimulating action ([1]; 91 and 136.5 μg/mouse) | relative amount of AFC ([2]; 45.5 μg/mouse i.v.) | total AFC amount ([2]; 45.5 μg/mouse i.v.) | relative amount of AFC ([3]; 91 μg/mouse i.v.) | further results |
| --- | --- | --- | --- | --- | --- | --- | --- | --- | --- | --- | --- | --- | --- | --- | --- | --- | --- | --- | --- | --- | --- |
| CC1=C(/C=C/C(C)=C/C=C/C(C)=C\C(=O)N[C@@H](COP(=O)(O)O)C(=O)O)C(C)(C)CCC1 (stereo in doubt) [Compound 2a, N-(13-cis-Retinoyl)-O-phospho-L-serine] | no immunogenic activity | 264.5±19.9 cells per 10^6 spleen cells | 34.0±2.6 × 10^3 | −12.8 p > 0.05% | −15.0 p > 0.05% | −7.7 p > 0.05% | 6.4 ± 0.2 10^−3 | display immunostimulating effect in vivo | 585.6±51.6 cells per 10^6 spleen cells | 59.4±5.2 × 10^3 | −3.8 p > 0.05% | 6.5 ± 0.2 10^−3 | 639.8±54.6 cells per 10^6 spleen cells | 68.3±6.1 × 10^3 | +5.1 p > 0.05% | 7.4 ± 0.4 10^−3 | marked immunostimulating action | 264.5±19.9 cells per 10^6 spleen cells | 34.0±2.6 × 10^3 | – | – |
| CCCCC/C=C\C/C=C\C/C=C\C/C=C\CCCC(=O)N[C@H](C(=O)O)[C@@H](C)OP(=O)(O)O [Compound 7, N-(cis-5,8,11,14-eicosatetraenoyl)-O-phospho-L-threonine] | – | – | – | – | – | – | – | – | – | – | – | – | – | – | – | – | – | – | – | 574.9±39.6 cells per 10^6 spleen cells | total AFC amount ([3]; 91 μg/mouse i.v.): 60.4±5.4 × 10^3 |
| CC1=C(/C=C/C(C)=C/C=C/C(C)=C/C(=O)NCCOP(=O)(O)O)C(C)(C)CCC1 [Compound 1, N-(all-trans-Retinoyl)-O-phospho-2-aminoethanol] | – | – | – | – | – | – | – | – | – | – | – | – | – | – | – | – | – | – | – | – | relative amount of AFC ([3]; 45.5 μg/mouse i.v.): 413.1±31.5 cells per 10^6 spleen cells; total AFC amount ([3]; 45.5 μg/mouse i.v.): 38.4±3.7 × 10^3 |
| CC1=C(/C=C/C(C)=C/C=C/C(C)=C/C(=O)N[C@H](C(=O)O)[C@@H](C)OP(=O)(O)O)C(C)(C)CCC1 (relative stereo) [Compound 3, N-(all-trans-Retinoyl)-O-phospho-L-threonine] | no immunogenic activity | 472.2±52.4 cells per 10^6 spleen cells | 44.6±3.9 × 10^3 | +15.9 p > 00.05% | +10.1 p > 0.05% | +4.8 p > 0.05% | 6.1 ± 0.3 10^−3 | display immunostimulating effect in vivo | 827.7±34.6 cells per 10^6 spleen cells | 60.3±4.1 × 10^3 | – | 6.2 ± 0.2 10^−3 | 961.3±56.5 cells per 10^6 spleen cells | 107.0±8.5 × 10^3 | – | 6.8 ± 0.3 10^−3 | high immunostimulating action | 472.2±52.4 cells per 10^6 spleen cells | 44.6±3.9 × 10^3 | – | Amount of hemagglutinins ([1]; 91 μg/mouse): 8.0±0.3 Log2 T; Amount of hemagglutinins ([1]; 136.5 μg/mouse): 8.7±0.3 Log2 T; Immunogenic activity ([2]; 45.5 μg/mouse): no immunogenic activity; also recorded: do not inhibit immunogenic activity |
| CC/C=C\C/C=C\C/C=C\C/C=C\C/C=C\CCCC(=O)N[C@@H](COP(=O)(O)O)C(=O)O [Compound 14, N-(cis-5,8,11,14,17-eicosapentaenoyl)-O-phospho-L-serine] | – | 554.6±52.0 cells per 10^6 spleen cells | 70.8±10.8 × 10^3 | −10.9 p > 0.05% | −1.5 p > 0.05% | −9,7 p > 0.05% | 6.5 ± 0.2 10^−3 | – | 645.8±64.4 cells per 10^6 spleen cells | 80.8±12.7 × 10^3 | −2,8 p > 0.05% | 6.2 ± 0.2 10^−3 | 946.1±41.9 cells per 10^6 spleen cells | 108.6±10.8 × 10^3 | 0% | 6.5 ± 0.3 10^−3 | – | – | – | – | Effect on relative amount of AFC (per 10^6 spleen cells) ([1]; 91 μg/mouse): +3.8 p > 0.05%; Effect on total AFC amount (per spleen) ([1]; 91 μg/mouse): +12.4 p > 0.05%; immunostimulating action ([1]; 136.5 μg/mouse): marked immunostimulating action; Immunogenic activity ([1]; 45.5 and 91 μg/mouse): no immunogenic activity; relative amount of AFC ([2]; 91 μg/mouse i.v.): 645.8±64.4 cells per 10^6 spleen cells; total AFC amount ([2]; 91 μg/mouse i.v.): 80.8±12.7 × 10^3 |
| CC/C=C\C/C=C\C/C=C\C/C=C\C/C=C\CCCC(=O)N[C@H](C(=O)O)[C@@H](C)OP(=O)(O)O [Compound 15, N-(cis-5,8,11,14,17-eicosapentaenoyl)-O-phospho-L-threonine] | – | – | – | – | – | – | – | – | – | – | – | – | – | – | – | – | – | – | – | 594.7±41.4 cells per 10^6 spleen cells | total AFC amount ([3]; 91 μg/mouse i.v.): 70.8±8.2 × 10^3 |

From patent US6403554B2, “Polyunsaturated fatty acid derivatives and their use” (Ardenia Investments Ltd., priority 1998, dated 2002)
